According to ChEMBL document CHEMBL1151299, “Flavonoids with anti-cataract activity from Brickellia arguta” (J Nat Prod, 1984):

Tests used:
[1] = biological target: Aldo-keto reductase family 1 member B1 (Rattus norvegicus) (UniProt P07943); assay: Inhibition of rat lens aldose reductase at 0.1 uM
[2] = biological target: Aldo-keto reductase family 1 member B1 (Rattus norvegicus) (UniProt P07943); assay: Inhibition of rat lens aldose reductase at 1 uM
[3] = biological target: Aldo-keto reductase family 1 member B1 (Rattus norvegicus) (UniProt P07943); assay: Inhibition of rat lens aldose reductase at 10 uM

Structure (SMILES) | inhibition [1] [%] | inhibition [2] [%] | inhibition [3] [%]
COc1c(O)cc2oc(-c3ccc(O)c(O)c3)c(O[C@@H]3O[C@H](CO[C@@H]4O[C@@H](C)[C@H](O)[C@@H](O)[C@H]4O)[C@H](O)[C@H](O)[C@H]3O)c(=O)c2c1O | 86 | 33 | 11
O=C(O)CN1C(=O)c2cccc3cccc(c23)C1=O | – | 40 | 0
COc1c(O)cc2oc(-c3ccc(O)c(O)c3)c(O[C@@H]3O[C@H](CO)[C@H](O)[C@H](O)[C@H]3O)c(=O)c2c1O | 84 | 38 | 7
COc1c(O)cc2oc(-c3ccc(O)cc3)c(O[C@@H]3O[C@H](CO[C@@H]4O[C@@H](C)[C@H](O)[C@@H](O)[C@H]4O)[C@H](O)[C@H](O)[C@H]3O)c(=O)c2c1O | 63 | 32 | 9
